Measured values published in patent publication US20110178072A1, “STEREOSPECIFICITY OF METHYLSULFINYL REDUCTION” (priority 2008, published 2011).

Key:
CBS = assay: Western blot analysis of CBS in SK-Hep1 cells grown on Met and Met sulfoxide media; format: cell-based, human; details: 0.1 mM
Experimental: Analysis of SK-Hep1 and fRMsr-transfected SK-Hep1 cells—SK-Hep1 and fRMsr-transfected SK-Hep1 cells were plated in 6-well plates at 7.5×10^4 cells/well in regular DMEM medium. The medium was changed to Met-free DMEM supplemented with either Met or individual Met sulfoxides at 24 hours after plating. Cells were then collected every 24 hours until 96 hours. Protein concentration was measured by the Bradford assay and the samples were probed by standard immunoblot assays with polyclonal MsrA (kindly provided by Bertrand Friguet), cystathionine beta synthase (CBS) (kindly provided by Ruma Banerjee), and activating transcription factor 3 (ATF3) (Santa Cruz Biotechnology) antibodies.

SK-Hep1 cells = assay: Growth and morphology of SK-Hep1 cells in Met-free DMEM supplemented with Met or Met sulfoxides (MTS proliferation assay, microscopy); format: cell-based, human; details: for Growth of SK-Hep1 cells: Met-free DMEM supplemented with 0.1 mM of the compound; for Morphology of SK-Hep1 cells: after 96 hours on medium with 0.1 mM of the compound
Experimental: Cell culture—SK-Hep1 (ATCC: HTB-52™) and fRMsr-transfected SK-Hep1 cells were cultured in DMEM or Met-free DMEM (GIBCO) media, supplemented with 0.1 mM Met, 0.1 mM Met-RO, 0.1 mM Met-SO, or 0.1 mM Met-RSO. […] Thus, 0.1 mM Met sulfoxides were used in the experiments described below. Cell culture experiments, with the exception of a proliferation assay, were carried out in 6-well plates, and cells were maintained at 37° C. in a 5% CO2 atmosphere. Proliferation Assay—Cell growth was quantified using colorimetric MTS assay (Promega). Cells in regular DMEM medium were plated in 96-well plates at 5×10^3 cells/well, washed with PBS, and specialized DMEM media were added that contained Met, Met-SO, Met-RO, or Met-RSO 24 hours after plating. To assay for cell proliferation, a tetrazolium compound [3-(4,5-dimethylthiazol-2-yl)-5-(3-carboxymethoxyphenyl)-2-(4-sulfophenyl)-2H-tetrazolium, inner salt; MTS] and an electron coupling reagent (phenazine methosulfate; PMS) were mixed according to the manufacturer's protocol and then 20 μL of the mixture were added to 100 μL of phenol red-excluded media that further replaced cell culture media. After 90 minutes of incubation at 37° C. in the atmosphere of 5% CO2, cell proliferation was measured at indicated time periods from 0 to 96 hours at 450 nm in a plate reader. Direct counting of viable cells using 0.2% trypan blue was done in 6-well plates. Microscopy—A Nikon TE-300 Widefield Microscope was used to prepare images of SK-Hep1 cells grown on different Met and Met sulfoxide media. Microscopy analyses were carried out in the University of Nebraska Microscopy Core Facility.

selenoproteins = assay: 75Se metabolic labeling of SK-Hep1 cells grown on Met and Met sulfoxide media; format: cell-based, human; details: 0.1 mM of each amino acid
Experimental: ^75 Se Metabolic labeling—SK-Hep1 cells were plated in 6-well plates at 7.5×10^4 cells/well in 1.5 mL of regular DMEM medium. After 24 hours, cells were washed with PBS and the medium was changed to modified DMEM media containing Met, Met-SO, Met-RO, or Met-RSO (0.1 mM of each amino acid). 0.01 mCi of freshly neutralized [^75Se]selenious acid (specific activity 1,000 Ci/mmol, University of Missouri Research Reactor) was added in each well at 48 hours after changing the medium and cells were incubated at 37° C. for 24 hours in 5% CO2 atmosphere, followed by harvesting the cells. Cell extracts (30 μg of total protein) were electrophoresed on 10% Bis-Tris gels and transferred onto PVDF membranes (Invitrogen). The ^75Se radioactivity pattern was visualized by using a PhosphorImager (GE Health Care).

[1] = tested on: yfRMsr transfected SK-Hep1; assay: Specific activity of yfRMsr transfected SK-Hep1 cells towards free Met sulfoxides; format: biochemical, human; details: for Specific activity of fRMsr-transfected cells: fRMsr-transfected SK-Hep1 cells; for Specific activity for each Met-O: yfRMsr transfected SK-Hep1, ± standard deviations from 3 independent experiments
Experimental: Transfection of yeast fRMsr gene into SK-Hep1 cells—A 6 His-tag sequence was cloned at the C-terminus of yeast fRMsr, the sequence was inserted into a mammalian expression vector, pCI-neo (Promega), and the resulting construct was verified by DNA sequencing. […] To establish a stable cell line, cells were selected in the presence of 800 μg/mL G418 sulfate (Promega), and further maintained in the presence of 400 μg/mL G418 sulfate. Expression of recombinant fRMsr was verified by western blotting using anti-His-tag antibodies and Msr activities were assayed by an HPLC method using OPA derivatization.
Activity assays of fRMsr—Reaction mixture (40 μL) included 50 mM DTT, 1 mM substrate (Met-RO or Met-SO), and purified enzyme or cell lysate prepared by treatment with CelLytic™M cell lysis reagent (Sigma). 20 μL of the reaction mixture was mixed with 2 μL of TCA and subjected to OPA derivatization as described above and then injected onto the column to measure endogenous Met level in the samples. An additional 20 μL from the same original reaction mixture were incubated at 37° C. for 30 minutes and then subjected to OPA derivatization by the same procedure using TCA. After derivatization of the sample (2-5 μL) by adding OPA solution to 100 μL as a final volume, 50 μL of the mixture were subjected to an HPLC separation as described above.

Structure (SMILES) | Expression of CBS (CBS; SK-Hep1 cells) | Expression of CBS (CBS; fRMsr-expressing SK-Hep1 cells) | Growth of SK-Hep1 cells (SK-Hep1 cells) | Morphology of SK-Hep1 cells (SK-Hep1 cells) | Selenoprotein patterns (75Se labeling) (selenoproteins) | Specific activity of fRMsr-transfected cells [1] | Specific activity for each Met-O [1] [pmol/min/mg]
C[S@@+]([O-])CC[C@H](N)C(=O)O [Met-RO, methionine-R-sulfoxide] | reduced expression | normal CBS levels | did not support growth | long and narrow | No difference was observed | ≈ 46.4 pmol/min/mg protein | 46.4 ± 5.0
C[S@+]([O-])CC[C@H](N)C(=O)O [Met-SO, methionine-S-sulfoxide] | CBS levels were decreased |  | could also proliferate | resembled those maintained in the presence of Met | No difference was observed | ≈ 42.7 pmol/min/mg protein | 42.7 ± 5.9
